In US20250092065A1, “2-(INDAZOL-5-YL)-6-(PIPERIDIN-4-YL)-1,7-NAPHTHYRIDINE DERIVATIVES AND RELATED COMPOUNDS AS MODULATORS FOR SPLICING NUCLEIC ACIDS AND FOR THE TREATMENT OF PROLIFERATIVE DISEASES” (REMIX THERAPEUTICS INC., priority 2022, published 2025) one finds AC50 and IC50 data, which are given here for 26 molecules.

SMILES strings stand for the structures. Like-named read-outs stand apart in the source and are kept apart here. A value given as a limit tells only on which side of the number the result lay.

The test concerns MYB mRNA. Nature of the test: RT-qPCR splicing assay, MYB mRNA canonical (CJ) and alternative (AJ) junction. To be noted: Homo sapiens; for AC50: MYB alternative junction mRNA, read-out: MYB AJ (increase in AJ mRNA, AC50). The test is classed as cell-based, human. Put shortly:
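Both isoforms, CJ and AJ, read by qPCR from crude lysates of treated A673 or K562 cells; 24 h, 37 °C, maximum 10 uM. Normalization: housekeeper ΔCt, then DMSO ΔΔCt.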

[1] abbreviates: MYB canonical junction mRNA, RT-qPCR, read-out: MYB CJ (decrease in CJ mRNA levels, IC50).
Setting [2] is: canonical junction qPCR panel, Table 4, read-out: MYB IC50 (decrease in CJ mRNA levels).

By AC50 is commonly meant the midpoint of the concentration-response curve, whichever way the signal moves. A word on the IC50: it is the concentration needed to halve the response being measured. Consider `C[C@H]1C[C@H](c2ccc3nc(-c4cc5cn(C)nc5c(F)c4O)ccc3n2)CCN1` (single isomer, unassigned) [Compound 356], for which the half-maximal activity concentration (AC50) (RT-qPCR) is under 100 nM. In addition, the IC50 is, setting by setting: under setting [1], under 100 nM; under setting [2], under 100 nM.
Consider `Cc1c(O)c(-c2ccc3nc(N4CC[C@H](N[C@H]5C[C@H](F)C5)C4)ccc3n2)cc2cn(C)nc12` (single isomer, unassigned) [Compound 358], for which, for the setting “RT-qPCR”, the AC50 is under 100 nM. The IC50 was under 100 nM under setting [1] and under 100 nM under setting [2].
For the molecule `Cn1cc2cc(-c3ccc4nc(N5CC[C@@H](N)C5)ccc4n3)c(O)c(F)c2n1` (single isomer, unassigned) [Compound 362], under “RT-qPCR”, the AC50 was under 100 nM. Also, the IC50 by setting is: under setting [1], under 100 nM; under setting [2], under 100 nM.
Take `CN[C@@H]1CCN(c2ccc3nc(-c4cc5cn(C)nc5c(C)c4O)ncc3n2)C1` (single isomer, unassigned) [Compound 368]: under “RT-qPCR”, the AC50 was under 100 nM. For the same molecule, the IC50 reads like this: under setting [1], under 100 nM; under setting [2], under 100 nM.
As to `CN[C@H]1CCN(c2ccc3nc(-c4cc5cn(C)nc5c(C)c4O)ncc3n2)C1` (single isomer, unassigned) [Compound 369], the half-maximal activity concentration (AC50) (RT-qPCR) lay within 100 to 1000 nM. The concentration for half-maximal inhibition (IC50) is, setting by setting: under setting [1], 100 to 1000 nM; under setting [2], 100 to 1000 nM.
For `Cc1nc2c(F)c(O)c(-c3ccc4nc(N5CC[C@H](NC6(CF)CC6)C5)ccc4n3)cc2o1` (single isomer, unassigned) [Compound 373], the AC50 (RT-qPCR) is under 100 nM. In addition, the IC50 runs as follows: under setting [1], under 100 nM; under setting [2], under 100 nM.
Consider `Cc1nc2c(C)c(O)c(-c3ccc4nc(N5CC[C@H](NC6(CF)CC6)C5)ccc4n3)cc2o1` (single isomer, unassigned) [Compound 378], for which the concentration at half-maximal activity (AC50) (RT-qPCR) is under 100 nM. Further, the IC50 is under 100 nM under setting [1] and under 100 nM under setting [2].
As to `Cc1nc2c(C)c(O)c(-c3ccc4nc(N5CC[C@@H](NC6(CF)CC6)C5)ccc4n3)cc2o1` (single isomer, unassigned) [Compound 379], the AC50 (RT-qPCR) lay in the range of 100 to 1000 nM. Further, the IC50 reads like this: under setting [1], 100 to 1000 nM; under setting [2], 100 to 1000 nM.
For `Cn1cc2cc(-c3ncc4nc(N5CC[C@@H](N)C5)ccc4n3)c(O)c(F)c2n1` (single isomer, unassigned) [Compound 380], the AC50 (RT-qPCR) was under 100 nM. Besides, the IC50 is under 100 nM under setting [1] and under 100 nM under setting [2].
With `C[C@H]1C[C@@H](c2ccc3nc(-c4cc5cn(C)nc5c(F)c4O)ccc3n2)CCN1` (single isomer, unassigned) [Compound 383], the AC50 (RT-qPCR) was under 100 nM. Further, the IC50 was under 100 nM under setting [1] and under 100 nM under setting [2].
Take `Cn1cc2cc(-c3ccc4nc(C5CCNC[C@H]5O)ccc4n3)c(O)cc2n1` (single isomer, unassigned) [Compound 386]: the AC50 (RT-qPCR) lay within 1000 to 10000 nM. The half-maximal inhibitory concentration (IC50) fell in the range of 100 to 1000 nM under setting [1] and 100 to 1000 nM under setting [2].
With `Cn1cc2cc(-c3ccc4nc(N5CC[C@@H](NC(C)(C)C)C5)ccc4n3)c(O)c(F)c2n1` (single isomer, unassigned) [Compound 391], the half-maximal activity concentration (AC50) (RT-qPCR) was under 100 nM. The IC50 runs as follows: under setting [1], under 100 nM; under setting [2], under 100 nM.
As for `Cn1cc2cc(-c3ccc4nc(N5CC[C@H](NC(C)(C)C)C5)ccc4n3)c(O)c(F)c2n1` (single isomer, unassigned) [Compound 392], for the setting “RT-qPCR”, the concentration at half-maximal activity (AC50) was under 100 nM. In addition, the IC50 was under 100 nM under setting [1] and under 100 nM under setting [2].
In the case of `Cc1c(O)c(-c2ncc3nc([C@@H]4CCNC4)ccc3n2)cc2cn(C)nc12` (single isomer, unassigned) [Compound 398], the AC50 (RT-qPCR) fell in the range of 1000 to 10000 nM. In addition, the IC50 reads like this: under setting [1], 1000 to 10000 nM; under setting [2], 1000 to 10000 nM.
On to `Cc1nc2c(C)c(O)c(-c3ccc4nc(N5CC[C@@H](NC6CC6)C5)ncc4n3)cc2o1` (single isomer, unassigned) [Compound 432], for which the AC50 (RT-qPCR) fell in the range of 100 to 1000 nM. Also, the IC50 is, setting by setting: under setting [1], under 100 nM; under setting [2], under 100 nM.
Regarding `Cc1nc2cc(O)c(-c3ccc4nc(N5CC[C@@H](NC6CC6)C5)ncc4n3)cc2o1` (single isomer, unassigned) [Compound 434], under “RT-qPCR”, the AC50 was in the range of 100 to 1000 nM. In addition, the half-maximal inhibitory concentration (IC50) under setting [1] is 100 to 1000 nM and the IC50 under setting [2] was 100 to 1000 nM.
On to `Cc1nc2c(C)c(O)c(-c3ccc4cc(N5CC[C@@H](NC(C)(C)C)C5)ncc4n3)cc2o1` (single isomer, unassigned) [Compound 444], for which the AC50 (RT-qPCR) was in the range of 100 to 1000 nM. In addition, the IC50 reads like this: under setting [1], 100 to 1000 nM; under setting [2], 100 to 1000 nM.
On to `Cc1nc2c(C)c(O)c(-c3ccc4cc(N5CC[C@H](NC(C)(C)C)C5)ncc4n3)cc2o1` (single isomer, unassigned) [Compound 445], for which the AC50 (RT-qPCR) fell in the range of 1000 to 10000 nM. The concentration for half-maximal inhibition (IC50) is 1000 to 10000 nM under setting [1] and 1000 to 10000 nM under setting [2].
In the case of `Cc1nc2cc(O)c(-c3ccc4nc(N5CC[C@@H](NC6(CF)CC6)C5)ccc4n3)cc2o1` (single isomer, unassigned) [Compound 488], the half-maximal activity concentration (AC50) (RT-qPCR) is under 100 nM. The 50% inhibitory concentration (IC50) reads like this: under setting [1], under 100 nM; under setting [2], under 100 nM.
On to `Cc1nc2cc(O)c(-c3ccc4nc(N5CC[C@H](NC6(CF)CC6)C5)ccc4n3)cc2o1` (single isomer, unassigned) [Compound 489], for which the AC50 (RT-qPCR) is under 100 nM. The IC50 reads like this: under setting [1], under 100 nM; under setting [2], under 100 nM.
On to `Cc1nc2c(F)c(O)c(-c3ccc4nc(N5CC[C@@H](NC6(CF)CC6)C5)ccc4n3)cc2o1` (single isomer, unassigned) [Compound 491], for which the AC50 (RT-qPCR) is under 100 nM. Also, the IC50 was under 100 nM under setting [1] and under 100 nM under setting [2].
Regarding `Cn1cc2cc(-c3ccc4nc(N5CCC(NC6(CF)CC6)C5)ccc4n3)c(O)c(F)c2n1` (stereo in doubt) [Compound 353, 7-fluoro-5-{6-[(3R)-3-{[1-(fluoromethyl)cyclopropyl]amino}pyrrolidin-1-yl]-1,5-naphthyridin-2-yl}-2-methylindazol-6-ol], for the setting “RT-qPCR”, the half-maximal activity concentration (AC50) is under 100 nM. The IC50 was under 100 nM under setting [1] and under 100 nM under setting [2].
Consider `Cn1cc2cc(-c3ccc4nc(N5CCC(NC6(CF)CC6)C5)ccc4n3)c(O)c(F)c2n1` (stereo in doubt) [Compound 357, 7-fluoro-5-{6-[(3S)-3-{[1-(fluoromethyl)cyclopropyl]amino}pyrrolidin-1-yl]-1,5-naphthyridin-2-yl}-2-methylindazol-6-ol], for which the AC50 (RT-qPCR) was under 100 nM. In addition, the IC50 runs as follows: under setting [1], under 100 nM; under setting [2], under 100 nM.
In the case of `Cn1cc2cc(-c3ccc4nc(N5CCC(N)C5)ccc4n3)c(O)c(F)c2n1` (stereo in doubt) [Compound 363, 5-{6-[(3R)-3-aminopyrrolidin-1-yl]-1,5-naphthyridin-2-yl}-7-fluoro-2-methylindazol-6-ol], the AC50 (RT-qPCR) was under 100 nM. The IC50 under setting [1] was under 100 nM and the IC50 under setting [2] was under 100 nM.
For the molecule `Cc1nc2c(F)c(O)c(-c3ccc4nc(N5CC[C@@H](N[C@H]6C[C@@H](F)C6)C5)ccc4n3)cc2o1` (stereo in doubt) [Compound 375], where the note is “RT-qPCR”, the AC50 is under 100 nM. Besides, the IC50 was under 100 nM under setting [1] and under 100 nM under setting [2].
As to `Cc1nc2c(C)c(O)c(-c3ccc4nc(N5CC[C@@H](N[C@H]6C[C@@H](F)C6)C5)ccc4n3)cc2o1` (stereo in doubt) [Compound 376], the half-maximal activity concentration (AC50) (RT-qPCR) was under 100 nM. The IC50 is under 100 nM under setting [1] and under 100 nM under setting [2].
